Experimental data published in patent publication US20230173071A1, “TREATMENT OF MYOPIA AND OTHER OCULAR CONDITIONS USING SINGLET OXYGEN GENERATED FROM DYES ACTIVATED BY NEAR-INFRARED LIGHT” (California Institute of Technology, priority 2018, published 2023).

Tests used:
[1] = system: sclera of enucleated young rabbit eyes; assay: Eye expansion test - whole eye treatment, scleral area analysis; details: for reduction in expansion, treated vs untreated: ICG with sodium iodide (NaI) additive in D2O; for reduction in expansion, fully treated eyes vs NIR light only treated eyes: ICG/NaI/D2O with NIR light
Procedure: Enucleated young rabbit eyes were provided from collaborators at University of California, San Francisco (UCSF). These were shipped overnight and used within 1-4 days. Upon arrival, they were stored in Dulbecco's buffer in a 4° C. refrigerator until use. They were trimmed of fat and muscle to provide a smooth surface for easy identification of changes to the size. All irradiations used an 810 nm LED (Thor) set to a power of ˜200 mW.
Untreated eyes received no further modification and were stored in Dulbecco's buffer in the refrigerator until use. Eyes to be treated had their epithelial layer on the cornea removed. An ethanol-soaked Kim wipe was applied to the cornea for two minutes and then a scalpel blade was used to scrape the layer off. Removal was confirmed using a fluorescein strip and long UV light. […] The eye was placed cornea up on a damp (D2O) gauze pad and then placed on a 10 mL beaker. The LED was placed above the eye to irradiate down for 10 minutes with 5-15 drops of either the soaking solution or D2O being applied every 2 minutes to keep the sample hydrated. Once completed, the irradiation process was repeated for the reverse side of the eye (by the retina), then the eye on its side (half cornea & sclera), and finally on the reverse side of the sideways eye. This was a total of four 10 minute irradiations aimed to treat the whole eye.
The eye expansion setup followed the protocol outlined below. The eyes were placed on a stand and 30 gauge needle was inserted from underneath. The chamber was filled with Dulbecco's buffer and two different antibiotics mixtures—an ophthalmic solution of Trimethoprim Sulfate and Polymyxin B Sulfate and an ophthalmic ointment of Neomycin and Polmyxin B Sulfates and Bacitracin Zinc. A low pressure (˜22 mm Hg) was applied for one hour to equilibrate the eyes prior to applying a higher pressure (˜85 mm Hg) for the experiment. This is done by raising an IV bag to a predetermined height above the eye chamber. The higher pressure was applied from 12-36 hours (or until rupture) depending on the experiment. Two photos were taken every 15 minutes during both the low and high-pressure applications. […]
Image J was used to calculate the scleral area for comparison. […] Measured scleral areas where then converted to percent change from the initial time point (when the higher pressure was first applied). These values were averaged and standard errors calculated for comparison.
To evaluate the ability of ICG to crosslink the sclera, a similar set of eye expansion tests was performed. […] To quantify this observation, the area of the sclera was calculated using Image J for the initial and 12-hour time points (FIGS. 7(A-B)). Expansion from the initial time point was calculated and compared as a percent.

[2] = Dye solubility observations; assay type: physicochemical
Procedure: ICG is a NIR-absorbing heptamethine dye that has the potential of generating singlet oxygen upon irradiation and has a λmax ranging from 780-810 nm depending on the context. […] BAC along with other cationic surfactants (alkyl ammonium salts, polyoxyethylene alkyl amines, amide linked alkyl amines, alkyl imidazolines, etc.) aid in the solubility of the dye in aqueous media. […] The standard formulation used in these studies consisted of 0.05 to 5.0 mg/mL ICG and 0.01% to 0.001% BAC in solution. D2O was selected as the solvent to increase the lifetime of singlet oxygen and therefore the crosslinking capability of the species. […] Fluorinated solvents (perfluorohexane, perfluorotripentylamine, etc.) are also of interest due to their ability to dissolve more oxygen and their robust inertness.

solubility in aqueous media ([2]; BAC compared with sodium iodide): greater increases in solubility
solubility in aqueous media ([2]; with BAC and other cationic surfactant additives): enhanced solubility
SMILES: CC1(C)C(/C=C/C=C/C=C/C=C2\N(CCCCS(=O)(=O)O)c3ccc4ccccc4c3C2(C)C)=[N+](CCCCS(=O)(=O)[O-])c2ccc3ccccc3c21 [ICG, indocyanine green]
reduction in expansion, treated vs untreated ([1]; 12 hour time point): ~62%
reduction in expansion, treated vs untreated ([1]; 24 hour time point): 70%
reduction in expansion, fully treated eyes vs NIR light only treated eyes ([1]; 12 hour time point): ~69%
reduction in expansion, fully treated eyes vs NIR light only treated eyes ([1]; 24 hour time point): ~72%
